Source: US11478474B2, “2-(3′-(hydroxymethyl)-1-methyl-5-((5-(2-methyl-4-(oxetan-3-yl)piperazin-1-yl)pyridin-2-yl)amino)-6-oxo-1,6-dihydro-[3,4′-bipyridin]-2′-yl)-7,7-dimethyl-7,8-dihydro-2H-cyclopenta[4,5]pyrrolo[1,2-a]pyrazin-1(6H)-one as a BTK inhibitor” (HUTCHISON MEDIPHARMA LIMITED, priority 2020, dated 2022)

How the values were obtained:
[1] = molecular target: phosphorylated BTK in Ramos cells (Homo sapiens (Human), UniProt Q06187); assay: Determination of phosphorylated BTK in Ramos cells (BTK phospho-Y223 HTRF); type: cell-based; conditions: anti-human IgM + hydrogen peroxide stimulation
Summary of the method: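 Ramos cells starved 2 h in 1% FBS, then treated 1 h with compound (0.00018–3.0 μM, 0.3% DMSO). They were then stimulated 10 min at 37° C. with anti-human IgM (10 μg/mL) plus H2O2 (3.3 mM). Lysates read by BTK phospho-Y223 HTRF (665/615 nm ratio); IC50 fitted from inhibition normalized to stimulated and unstimulated controls.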

[2] = tested on: B cell activation in rat whole blood; assay: Determination of B cell activity in whole blood of rats (anti-rat IgD induced B cell activation, flow cytometry); type: cell-based; conditions: anti-rat immunoglobulin D 10 μg/mL, 18 hours, inhibition of B cell activation
Procedure: Example 4 Determination of B Cell Activity in Whole Blood of Rats
1. Reagents and Materials
Peripheral whole blood of female Wistar rats;
In the determination of the compound activity, the collected peripheral whole blood of rat was added to a 96 well plate at 80 μL/well and cultured in a 5% CO2, 37° C. cell incubator. After half an hour, the test compound was diluted with PBS in a 3-fold gradient to the corresponding concentrations, and then the diluted test compound with different concentrations was added to the culture system of rat whole blood at 10 μL/well (the final concentration of the test compound was 1.0, 0.33, 0.11, 0.037, 0.012, 0.0041, 0.0014, and 0.0005 μM, the final concentration of DMSO was 0.3%, double replicate wells), or the control solution (0.3% DMSO, 6 replicate wells) was added to the corresponding well at 10 μL/well, which were incubated in the cell incubator for one hour. Then 10 μL/well of anti-rat immunoglobulin D diluted in PBS (the final concentration was 10 μg/mL) was add to the treating wells of the test compound and control wells for anti-rat immunoglobulin D, or 10 μL/well of PBS was added to the negative control wells, which were mixed well to continue the culture in a 5% CO2, 37° C. cell incubator, and incubated for 18 hours.
On the second day, the 96-well plates were taken out and the flow cytometry antibody mixture (the final concentration of anti-rat B220PE antibody was 1 μg/mL and the final concentration of anti-rat CD86 FITC antibody was 1 μg/mL) diluted with PBS was added to each well of plate, which were incubated for 30 minutes in the dark, and then 50 μL of blood from each well was pipetted to the freshly prepared 500 μL of lysis buffer to lyse red blood cells. The plates were shaken for 20 minutes, centrifuged to remove the supernatant, then washed, fixed, and detected on a flow cytometer.
The B cell activation in the sample was determined by flow dyeing method.
The average value of the proportion of activated B cells in the wells with anti-rat immunoglobulin D but without the test compound was used as the control treating well for anti-rat immunoglobulin D, and the average value of the proportion of activated B cells in the wells without immunoglobulin D stimulation and without the test compound was used as the negative control treating well. According to the B cell activation ratio in each well, the inhibition ratio (%) of each concentration was calculated, and then the IC50 value was obtained by using the 205 model in XL-Fit 5.3 software (ID Business Solutions Limited).
The inhibition ratio is calculated as follows: inhibition ratio (%)=100%−{(treating well for the test compound−negative control treating well)/(control treating well for anti-rat immunoglobulin D−negative control treating well)}×100%, wherein,
Treating well for the test compound: represents the B cell activation ratio in rat whole blood treated with anti-rat immunoglobulin D and the test compound.
Control treating well for anti-rat immunoglobulin D: represents the B cell activation ratio in rat whole blood treated with anti-rat immunoglobulin D but without the test compound.
Negative control treating well: represents the B cell activation ratio in rat whole blood without the test compound and without immunoglobulin stimulation.
Through the above-mentioned test, the compound of the present invention has a potency to inhibit B cell activation in rat whole blood.

Sequence of phosphorylated BTK in Ramos cells (Q06187 whole entry): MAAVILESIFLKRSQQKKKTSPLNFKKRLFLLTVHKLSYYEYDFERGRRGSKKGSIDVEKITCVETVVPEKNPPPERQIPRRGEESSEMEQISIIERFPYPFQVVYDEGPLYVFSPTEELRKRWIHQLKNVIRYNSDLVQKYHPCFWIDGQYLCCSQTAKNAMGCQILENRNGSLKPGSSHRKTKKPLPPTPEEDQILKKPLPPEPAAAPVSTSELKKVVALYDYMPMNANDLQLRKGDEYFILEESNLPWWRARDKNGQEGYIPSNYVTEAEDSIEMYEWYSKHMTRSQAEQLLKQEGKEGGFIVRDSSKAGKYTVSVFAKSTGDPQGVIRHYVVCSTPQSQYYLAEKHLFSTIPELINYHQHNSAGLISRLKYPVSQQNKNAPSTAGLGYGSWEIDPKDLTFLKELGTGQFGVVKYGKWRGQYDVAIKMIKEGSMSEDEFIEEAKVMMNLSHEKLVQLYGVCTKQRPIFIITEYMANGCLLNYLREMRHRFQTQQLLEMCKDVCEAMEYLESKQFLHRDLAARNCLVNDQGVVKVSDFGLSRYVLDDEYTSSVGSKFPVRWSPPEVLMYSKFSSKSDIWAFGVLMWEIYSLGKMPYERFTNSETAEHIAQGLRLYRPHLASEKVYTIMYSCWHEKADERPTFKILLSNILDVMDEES

SMILES | IC50 [1] | IC50 [2]
C[C@H]1CN(C2COC2)CCN1c1ccc(Nc2cc(-c3ccnc(-n4cnn5c6c(cc5c4=O)CC(C)(C)C6)c3CO)cn(C)c2=O)nc1 [Compound 63] | 5 nM | 44 nM
C[C@H]1CN(C2COC2)CCN1c1ccc(Nc2cc(-c3ccnc(-n4ccn5c6c(cc5c4=O)CC(C)(C)C6)c3CO)cn3c(F)cnc23)nc1 [Compound 23] | 30 nM | 277 nM
C[C@@H]1CN(c2ccc(Nc3cc(-c4ccnc(-n5ccn6c(c(F)c7ccccc76)c5=O)c4CO)cn(C)c3=O)nc2)[C@@H](C)CN1C1COC1 [Compound 59] | 1 nM | 19 nM
C[C@H]1CN(C2COC2)CCN1c1ccc(Nc2cc(-c3ccnc(-n4ccn5c6c(cc5c4=O)CC(F)(F)CC6)c3CO)cn(C)c2=O)nc1 [Compound 58] | 4 nM | 6 nM
C[C@H]1CN(C2COC2)CCN1c1ccc(Nc2cc(-c3ccnc(-n4ccn5c(cc6cc(F)ccc65)c4=O)c3CO)cn(C)c2=O)nc1 [Compound 75] | 7 nM | 85 nM
C[C@H]1CN(C2COC2)CCN1c1ccc(Nc2cc(-c3ccnc(-n4ccn5c6c(cc5c4=O)CCC6)c3CO)cn(C)c2=O)nc1 [Compound 64] | 10 nM | 52 nM
CC1CCc2cc3c(=O)n(-c4nccc(-c5cc(Nc6ccc(N7CCN(C8COC8)C[C@@H]7C)cn6)c(=O)n(C)c5)c4CO)ccn3c2C1 (mixture of isomers) [Compound 78] | 3 nM | 41 nM
C[C@H]1CN(C2COC2)CCN1c1ccc(Nc2cc(-c3ccnc(-n4ccn5c6c(cc5c4=O)CC(C)(C)C6)c3CO)nn(C)c2=O)nc1 [Compound 22] | 18 nM | 34 nM
C[C@H]1CN(C2COC2)CCN1c1ccc(Nc2cc(-c3ccnc(-n4ccn5c(c(F)c6cc(F)ccc65)c4=O)c3CO)cn(C)c2=O)nc1 [Compound 60] | 3 nM | 34 nM
C[C@H]1CN(C2COC2)CCN1c1ccc(Nc2cc(-c3ccnc(-n4ccn5c(c(F)c6ccccc65)c4=O)c3CO)cn(C)c2=O)nc1 [Compound 57] | 3 nM | 21 nM
C[C@H]1CN(C2COC2)CCN1c1ccc(Nc2cc(-c3ccnc(-n4ccn5c6c(cc5c4=O)CCC(F)(F)C6)c3CO)cn(C)c2=O)nc1 [Compound 56] | 24 nM | 
CCn1cc(Nc2cc(-c3ccnc(-n4ccn5c6c(cc5c4=O)CC(C)(C)C6)c3CO)cn3ncnc23)nn1 [Compound 71] | 6 nM | 92 nM
C[C@H]1CN(C2COC2)CCN1c1ccc(Nc2cc(-c3ccnc(-n4ccn5c(cc6ccccc65)c4=O)c3CO)cn(C)c2=O)nc1 [Compound 74] | 11 nM | 
C[C@H]1CN(C2COC2)CCN1c1ccc(Nc2cc(-c3ccnc(-n4ccn5c6c(cc5c4=O)CC(C)(C)C6)c3CO)cn3ncnc23)nc1 [Compound 21] | 15 nM | 24 nM
C[C@H]1CN(C2COC2)CCN1c1ccc(Nc2cc(-c3ccnc(-n4ccn5c6c(cc5c4=O)CC(C)(C)C6)c3CO)n[nH]c2=O)nc1 [Compound 49] | 1 nM | 10 nM
C[C@@H]1CN(c2ccc(Nc3cc(-c4ccnc(-n5ccn6c7c(cc6c5=O)CCC7)c4CO)cn(C)c3=O)nc2)[C@@H](C)CN1C1COC1 [Compound 2, 2-(5-((5-((2S,5R)-2,5-dimethyl-4-(oxetan-3-yl)piperazin-1-yl)pyridin-2-yl)amino)-3′-(hydroxymethyl)-1-methyl-6-oxo-1,6-dihydro-[3,4′-bispyridin]-2′-yl)-7,8-dihydro-2H-cyclopenta[4,5]pyrrolo[1,2-a]pyrazin-1(6H)-one] | 10 nM | 54 nM

Results, then the molecule that gave them:

IC50 [1] | IC50 [2] | SMILES
4 nM | 3 nM | C[C@H]1CN(C2COC2)CCN1c1ccc(Nc2cc(-c3ccnc(-n4ccn5c6c(cc5c4=O)CC(C)(C)C6)c3CO)cn(C)c2=O)nc1 [Compound 19]
18 nM |  | C[C@H]1CN(C2COC2)CCN1c1cnc(Nc2cc(-c3ccnc(-n4ccn5c6c(cc5c4=O)CC(C)(C)C6)c3CO)cn(C)c2=O)nc1 [Compound 44]
2 nM | 52 nM | C[C@H]1CN(C2COC2)CCN1c1cnc(Nc2cc(-c3ccnc(-n4ccn5c6c(cc5c4=O)CC(C)(C)C6)c3CO)cn(C)c2=O)cn1 [Compound 43]
2 nM | 78 nM | Cn1cc(Nc2cc(-c3ccnc(-n4ccn5c6c(cc5c4=O)CC(C)(C)C6)c3CO)cn(C)c2=O)nn1 [Compound 28]
2 nM | 84 nM | COCCN(C)c1ccc(Nc2cc(-c3ccnc(-n4ccn5c6c(cc5c4=O)CC(C)(C)C6)c3CO)cn(C)c2=O)nc1 [Compound 50]
7 nM | 19 nM | C[C@H]1CN(C)CCN1c1ccc(Nc2cc(-c3ccnc(-n4ccn5c6c(cc5c4=O)CC(C)(C)C6)c3CO)cn(C)c2=O)nc1 [Compound 26]
1 nM | 5 nM | C[C@@H]1CN(c2ccc(Nc3cc(-c4ccnc(-n5ccn6c7c(cc6c5=O)CC(C)(C)C7)c4CO)cn(C)c3=O)nc2)[C@@H](C)CN1C1COC1 [Compound 27]
2 nM | 17 nM | COCCN1CCN(c2ccc(Nc3cc(-c4ccnc(-n5ccn6c7c(cc6c5=O)CC(C)(C)C7)c4CO)cn(C)c3=O)nc2)[C@@H](C)C1 [Compound 8]
2 nM | 6 nM | C[C@H]1CN(C2COC2)CCN1c1ccc(Nc2cc(-c3ccnc(-n4ncn5c6c(cc5c4=O)CC(C)(C)C6)c3CO)cn(C)c2=O)nc1 [Compound 79]
6 nM | 93 nM | Cn1cc(-c2ccnc(-n3ccn4c5c(cc4c3=O)CC(C)(C)C5)c2CO)cc(Nc2cn(CCF)nn2)c1=O [Compound 31]
6 nM | 26 nM | CN1CCN(C(=O)c2ccc(Nc3cc(-c4ccnc(-n5ccn6c7c(cc6c5=O)CC(C)(C)C7)c4CO)cn(C)c3=O)nc2)CC1 [Compound 48]
4 nM |  | Cn1cc(-c2ccnc(-n3ccn4c5c(cc4c3=O)CC(C)(C)C5)c2CO)cc(Nc2ccc(N3CCN(C4COC4)CC3)cn2)c1=O [Compound 9]
